Experimental data reported in patent US4439434A, “Cephalosporin derivative and pharmaceutical composition containing the derivative” (Kureha Kagaku Kogyo Kabushiki Kaisha, priority 1981, dated 1984).
Values after ≈ are worked out from the molar mass of the structure shown.

Experiments:
ICR-JCL mouse = conditions: conventional cephalosporin antibiotic, route not stated; cited from earlier work
Escherichia coli = experiment: Effect on the intestinal bacterial colonies: Escherichia coli in feces; assay type: in vivo; conditions: mice, oral 500 mg/kg/day for two consecutive days, feces one day after administration
Description: (§1) Each of the cephalosporin derivatives of the invention prepared in Examples 1 to 10 was orally administered to mice (one group consisting of five female ICR mice of 6-week-old) for two consecutive days at a dose of 500 mg/kg/day.
(§2) Before and one day after the administration, feces of each mouse were collected and diluted with an anaerobic diluent (phosphoric buffer solution) of 100 times volume and the diluted feces were ground. 0.1 ml of the diluted and ground feces was smeared on each culture medium shown in Table 1 and cultured aerobically or anaerobically (according to the anaerobic glove box method) under each condition shown in Table 1 and the number of each bacterium shown in Table 1 was counted.
DHL agar aerobic, 37° C.,

Pseudomonas aeruginosa = experiment: Effect on the intestinal bacterial colonies: Pseudomonas aeruginosa in feces; assay type: in vivo; conditions: mice, oral 500 mg/kg/day for two consecutive days, feces one day after administration
Description: as §1, §2
NAC agar aerobic, 37° C.,

Streptococcus spp. = experiment: Effect on the intestinal bacterial colonies: Streptococcus spp. in feces; assay type: in vivo; conditions: mice, oral 500 mg/kg/day for two consecutive days, feces one day after administration
Description: as §1, §2
TATAC agar aerobic, 37° C.,

[1] = tested on: Lactobacillus acidophilus; experiment: Effect on the intestinal bacterial colonies: Lactobacillus acidophilus in feces; assay type: in vivo; conditions: mice, oral 500 mg/kg/day for two consecutive days, feces one day after administration
Description: as §1, §2
Lactobacillus acidophilus
LBS agar anaerobic, 37° C.,

Lactobacillus bifidus = experiment: Effect on the intestinal bacterial colonies: Lactobacillus bifidus in feces; assay type: in vivo; conditions: mice, oral 500 mg/kg/day for two consecutive days, feces one day after administration
Description: as §1, §2
BS agar anaerobic, 37° C.,

Bacteroides = experiment: Effect on the intestinal bacterial colonies: Bacteroides in feces; assay type: in vivo; conditions: mice, oral 500 mg/kg/day for two consecutive days, feces one day after administration
Description: as §1, §2
Bacteroides NBGT agar anaerobic, 37° C.,

[2] = tested on: Escherichia coli IFO 12734; experiment: Antibacterial activity (MIC, agar plate) against E. coli; assay type: cell-based; conditions: Escherichia coli IFO 12734, Mueller-Hinton agar, 37° C., 18 to 24 hours; unit assumed
Description: (§3) Antibacterial activity of each of the cephalosporin derivatives of the invention prepared in Examples 1 to 10 was examined against the following two bacteria according to the standard method of Japan Society of Chemitherapy: Escherichia coli IFO 12734 and Staphylococcus aureus IAM 1011.
(§4) Each bacterial strain was inoculated into the Mueller-Hinton's culture medium and cultured at 37° C. for 18 to 48 hours. The cultured medium was diluted so as to contain 1×10^6 cells of the bacteria per one ml, and the obtained medium was used as the bacterial specimen.
(§5) Agar plates were prepared by adding one part by weight of each solution of the cephalosporin derivative of the invention at a predetermined concentration to nine parts by weight of Mueller-Hinton's culture medium.
(§6) A loopful amount of the bacterial specimen prepared above was smeared to make a streak of about 2 cm on each agar plate prepared above and cultured at 37° C. for 18 to 24 hours.
(§7) The minimum concentration for completely inhibiting proliferation of the bacteria (referred to as MIC) was determined.

[3] = tested on: Staphylococcus aureus IAM 1011; experiment: Antibacterial activity (MIC, agar plate) against Staph. aureus; assay type: cell-based; conditions: Staphylococcus aureus IAM 1011, Mueller-Hinton agar, 37° C., 18 to 24 hours; unit assumed
Description: as §3, §4, §5, §6, §7

[4] = tested on: Staphylococcus aureus IAM 1011; experiment: Activation by rat liver homogenate (S-9 mix), proliferation-inhibiting circle, penicillin cup method; assay type: cell-based; conditions: incubated with rat liver S-9 mix, 37° C. 20 min; circle diameter relative to the starting compound
Description: As an activating enzyme of metabolism, a rat liver homogenate (S-9, manufactured by Oriental Yeast Company, Japan) was used in the following composition per 1 ml (hereinafter referred to as S-9 mix). 0.1 ml of the solution of each of the cephalosporin derivatives of the invention prepared in Examples 1 to 10 at a concentration of 100 μg/ml was mixed with 0.9 ml of S-9 mix or 0.9 ml of 0.1 M phosphoric buffer solution (as a control) and the obtained mixture was incubated at 37° C. for 20 min. with shaking. Staphylococcus aureus IAM 1011 was inoculated into a Mueller-Hinton's culture medium and cultured at 37° C. for 18 hours. The culture medium was adjusted to a cell concentration of 1×10^8 per 1 ml and mixed with 50 times by volume of Mueller-Hinton's agar culture medium to obtain an agar plate. A penicillin cup of 8 mm in diameter was placed on the agar plate prepared above, and into the cup 0.1 ml of the mixture containing the cephalosporin derivative prepared above was introduced and allowed to stand at 4° C. for 2 hours, and then cultured at 37° C. for 18 hours to measure the diameter of a circle in which the proliferation of bacteria was inhibited (proliferation-inhibiting circle). In Table 4, the proliferation-inhibiting index is shown in the ratio (%) of the diameter of the proliferation-inhibiting circle obtained by using each of the cephalosporin derivatives of the invention to that obtained by using each of the starting compound in preparing each of the cephalosporin derivatives of the invention.

Row | SMILES | LD50 (ICR-JCL mouse) | Logarithmic value of the number of bacterial cells per one g of feces, E. coli (Escherichia coli) | Logarithmic value of the number of bacterial cells per one g of feces, Ps. aeruginosa (Pseudomonas aeruginosa) | Logarithmic value of the number of bacterial cells per one g of feces, Strept. spp. (Streptococcus spp.) | Logarithmic value of the number of bacterial cells per one g of feces, L. acidophilus [1] | Logarithmic value of the number of bacterial cells per one g of feces, L. bifidus (Lactobacillus bifidus) | Logarithmic value of the number of bacterial cells per one g of feces, Bacteroides (Bacteroides) | MIC E. coli [2] | MIC Staph. aureus [3] | Proliferation-inhibiting index (%) After adding S-9 mix [4]
1 | CC(=O)OCC1=C(C(=O)O)N2C(=O)[C@@H](NC(=O)Cc3cccs3)[C@H]2SC1 [cephalotin sodium] | about 5 g/kg |  |  |  |  |  |  |  |  | 
2 | CCOC(=O)Cc1ccc(NC(=O)C2=C(COC(C)=O)CSC3C(NC(=O)Cc4cccs4)C(=O)N23)cc1 (stereo not shown) [Example 7, N-(4-carboethoxymethylphenyl)-7-(thienyl-2-acetamido)cephalosporanic acid amide] |  | 6.4 | < 3.0 | 6.6 | 8.9 | 8.3 | 8.8 | ≥ 100 µg/mL | 6.25 µg/mL (≈ 11.2 µM) | +++ (66-100)
